# US20030215462A1, “Use of UGT inhibitors to increase bioavailability” (priority 2001, published 2003)
# Several values for one entry are separate records, joined by “and”; a condition that tells them apart may be missing. Identical values can stand only once.
# Assays:
# [1] = test system: T1, UGT enzymes of human liver microsomes; assay: Inhibition of 7-HFC glucuronidation in human liver microsomes; type: biochemical; conditions: for % of control metabolism (SD, n = 3), 7-HFC glucuronidation: 7-HFC 50 μM, human liver microsomes 100 μg/ml, 15 min
# T1 construct: percentage of control metabolism, 7-HFC glucuronidation; percentage of control metabolism, 7-HFC glucuronidation
# [2] = test system: UGT enzymes of human liver microsomes; assay: Inhibition of raloxifene glucuronidation (G1, G2) in human liver microsomes; type: biochemical; conditions: for % of control metabolism (SD, n = 3), raloxifene glucuronide G1 / % of control metabolism (SD, n = 3), raloxifene glucuronide G2: human liver microsomes 250 μg/ml, 15 min
# Source text: Compounds were eluted using a binary solvent gradient system. […] Solvent B was methanol. […] Detection was at 280 nm.
# [3] = test system: UGT enzymes of pooled human jejunum microsomes; assay: Inhibition of estradiol (E2) glucuronidation in pooled human jejunum microsomes; type: biochemical; conditions: jejunum HJ61, E2 50 μM
# Source text: (§1) Compounds were eluted using a binary solvent gradient system where solvent A was dilute phosphoric acid (pH 3) and solvent B was 80:20 acetonitrile-methanol. […] Detection was at 280 nm.
# [4] = test system: T2, UGT enzymes of human liver microsomes; assay: Inhibition of 2ME2 glucuronidation (MG1, MG2) in human liver microsomes; type: biochemical; conditions: liver 062101, 2ME2 50 μM
# T2 construct: other: liver 062101
# Source text: as §1
# [5] = target: T3, UGT1A1 (Homo sapiens, UniProt P22309); assay: Inhibition of raloxifene glucuronidation by recombinant UGT1A1 Supersomes; conditions: UGT1A1
# T3 sequence (P22309 26-533): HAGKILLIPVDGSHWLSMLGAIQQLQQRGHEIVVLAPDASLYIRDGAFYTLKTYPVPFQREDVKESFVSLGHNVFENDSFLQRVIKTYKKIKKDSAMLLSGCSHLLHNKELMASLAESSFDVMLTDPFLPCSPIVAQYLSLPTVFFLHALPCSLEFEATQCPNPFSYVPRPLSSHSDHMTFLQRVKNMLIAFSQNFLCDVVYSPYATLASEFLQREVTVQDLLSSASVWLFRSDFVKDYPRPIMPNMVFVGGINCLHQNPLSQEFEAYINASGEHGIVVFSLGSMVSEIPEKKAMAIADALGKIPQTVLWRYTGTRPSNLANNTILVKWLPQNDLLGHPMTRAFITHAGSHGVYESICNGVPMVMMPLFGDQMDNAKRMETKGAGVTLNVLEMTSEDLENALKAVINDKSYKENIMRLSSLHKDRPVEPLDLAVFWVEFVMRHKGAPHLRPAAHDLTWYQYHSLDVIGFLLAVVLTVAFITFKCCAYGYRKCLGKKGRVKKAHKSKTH
# Experimental: (§2) Compounds were eluted using a binary solvent gradient system. Solvent A was water brought to pH 8 with NH4OH. Solvent B was methanol. Solvent flow rate was 1 ml/min and the column temperature was maintained at 50° C. Detection was at 280 nm. […] The system was then returned to the initial conditions and equilibrated for 3 min.
# [6] = target: T4, UGT1A3 (Homo sapiens, UniProt P35503); assay: Inhibition of raloxifene glucuronidation by recombinant UGT1A3 Supersomes; conditions: for activity at 15 min, 10 µM / activity at 15 min, 25 µM / activity at 15 min, 50 µM: human; for activity at 15 min, 10 µM: inhibitor 10 μM; for activity at 15 min, 25 µM: inhibitor 25 μM; for activity at 15 min, 50 µM: inhibitor 50 μM
# T4 sequence (P35503 29-534): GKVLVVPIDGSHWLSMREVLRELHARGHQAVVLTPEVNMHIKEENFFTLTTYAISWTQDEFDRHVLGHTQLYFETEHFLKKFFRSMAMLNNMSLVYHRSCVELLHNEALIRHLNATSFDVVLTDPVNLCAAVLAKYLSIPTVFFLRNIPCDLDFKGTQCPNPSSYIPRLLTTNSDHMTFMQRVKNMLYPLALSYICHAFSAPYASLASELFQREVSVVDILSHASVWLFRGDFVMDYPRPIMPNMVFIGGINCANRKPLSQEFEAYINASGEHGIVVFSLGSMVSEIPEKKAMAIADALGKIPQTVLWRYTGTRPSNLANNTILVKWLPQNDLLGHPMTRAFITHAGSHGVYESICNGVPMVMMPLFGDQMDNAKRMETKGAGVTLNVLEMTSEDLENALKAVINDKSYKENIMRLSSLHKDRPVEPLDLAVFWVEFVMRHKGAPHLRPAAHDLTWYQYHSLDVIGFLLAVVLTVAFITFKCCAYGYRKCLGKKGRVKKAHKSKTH
# Experimental: as §2
# [7] = inhibitor 2 μM, raloxifene 50 μM
# [8] = inhibitor 5 μM, raloxifene 50 μM
# [9] = inhibitor 10 μM, raloxifene 50 μM
# [10] = inhibitor 25 μM, raloxifene 50 μM
# [11] = inhibitor 50 μM, raloxifene 50 μM
# [12] = inhibitor 100 μM, raloxifene 50 μM
# [13] = inhibitor 500 μM, raloxifene 50 μM
# [14] = liver lot 032101, inhibitor 50 μM
# [15] = liver lot 062101, inhibitor 50 μM
# [16] = liver lot 083000, inhibitor 50 μM
# [17] = raloxifene 50 μM, inhibitor 10 μM
# [18] = raloxifene 50 μM, inhibitor 25 μM
# [19] = raloxifene 50 μM, inhibitor 50 μM
# [20] = raloxifene 50 μM, inhibitor 100 μM
# [21] = Supersomes with recombinant human UGT1A3, pH 7.5, probe raloxifene 50 μM, formation of glucuronide G1, % of control metabolism, raloxifene G1, UGT1A3
# [22] = Supersomes with recombinant human UGT1A3, pH 7.5, probe raloxifene 50 μM, formation of glucuronide G2, % of control metabolism, raloxifene G2, UGT1A3
# [23] = recombinant UGT1A3 Supersomes, pH 7.5, probe raloxifene 50 μM (formation of glucuronide G1), Inhibition of raloxifene glucuronidation, G1, UGT1A3, G1, raloxifene 50 μM, 250 μg/ml Supersomes, 1 mM UDPGA, 15 min
# [24] = recombinant UGT1A3 Supersomes, pH 7.5, probe raloxifene 50 μM (formation of glucuronide G2), Inhibition of raloxifene glucuronidation, G2, UGT1A3, G2, raloxifene 50 μM, 250 μg/ml Supersomes, 1 mM UDPGA, 15 min
smiles,measurement,setting,value
O=c1c(O)c(-c2ccc(O)c(O)c2)oc2cc(O)cc(O)c12 [Quercetin],"percentage of control metabolism, 7-HFC glucuronidation",[1]; inhibitor 100 μM,58 (1) %
same,"% of control metabolism (SD, n = 3), 7-HFC glucuronidation",[1]; inhibitor 100 μM,58 (1) %
same,"percentage of control metabolism, 7-HFC glucuronidation",[1]; inhibitor 200 μM,53 (1) %
same,"% of control metabolism (SD, n = 3), 7-HFC glucuronidation",[1]; inhibitor 200 μM,53 (1) %
same,"percentage of control metabolism, 7-HFC glucuronidation",[1]; inhibitor 500 μM,52 (1) %
same,"% of control metabolism (SD, n = 3), 7-HFC glucuronidation",[1]; inhibitor 500 μM,"52 (1), % and 62 (1) %"
same,"% of control metabolism (SD, n = 3), raloxifene glucuronide G1",[2]; [7],82 (6) %
same,"% of control metabolism (SD, n = 3), raloxifene glucuronide G1",[2]; [8],69 (1) %
same,"% of control metabolism (SD, n = 3), raloxifene glucuronide G1",[2]; [9],48 (1) %
same,"% of control metabolism (SD, n = 3), raloxifene glucuronide G1",[2]; [10],18 (1) %
same,"% of control metabolism (SD, n = 3), raloxifene glucuronide G1",[2]; [11],8 (1) %
same,"% of control metabolism (SD, n = 3), raloxifene glucuronide G1",[2]; [12],6 (2) %
same,"% of control metabolism (SD, n = 3), raloxifene glucuronide G1",[2]; [13],0 (0) %
same,"% of control metabolism (SD, n = 3), raloxifene glucuronide G2",[2]; [7],78 (3) %
same,"% of control metabolism (SD, n = 3), raloxifene glucuronide G2",[2]; [8],67 (2) %
same,"% of control metabolism (SD, n = 3), raloxifene glucuronide G2",[2]; [9],50 (1) %
same,"% of control metabolism (SD, n = 3), raloxifene glucuronide G2",[2]; [10],25 (1) %
same,"% of control metabolism (SD, n = 3), raloxifene glucuronide G2",[2]; [11],15 (1) %
same,"% of control metabolism (SD, n = 3), raloxifene glucuronide G2",[2]; [12],13 (2) %
same,"% of control metabolism (SD, n = 3), raloxifene glucuronide G2",[2]; [13],0 (0) %
same,"% of control metabolism, raloxifene G1",[2]; [14],25 (1) %
same,"% of control metabolism, raloxifene G2",[2]; [14],35 (1) %
same,"% of control metabolism, raloxifene G1",[2]; [15],34 (3) %
same,"% of control metabolism, raloxifene G2",[2]; [15],35 (3) %
same,"% of control metabolism, raloxifene G1",[2]; [16],8 (1) %
same,"% of control metabolism, raloxifene G2",[2]; [16],15 (1) %
same,"% of control metabolism, raloxifene G1",[2]; [17],48 (1) %
same,"% of control metabolism, raloxifene G2",[2]; [17],50 (1) %
same,"% of control metabolism, raloxifene G1",[2]; [18],18 (1) %
same,"% of control metabolism, raloxifene G2",[2]; [18],25 (1) %
same,"% of control metabolism, raloxifene G1",[2]; [19],8 (1) %
same,"% of control metabolism, raloxifene G2",[2]; [19],15 (1) %
same,"% of control metabolism, raloxifene G1",[2]; [20],6 (2) %
same,"% of control metabolism, raloxifene G2",[2]; [20],13 (2) %
same,"residual metabolism (% of control), E2-3-β-D-glucuronide",[3]; inhibitor 25 μM,44 (5) %
same,"residual metabolism (% of control), E2-17-β-D-glucuronide",[3]; inhibitor 25 μM,72 (3) %
same,"residual metabolism (% of control), E2-3-β-D-glucuronide",[3]; inhibitor 50 μM,29 (2) %
same,"residual metabolism (% of control), E2-17-β-D-glucuronide",[3]; inhibitor 50 μM,56 (2) %
same,"residual metabolism (% of control), E2-3-β-D-glucuronide",[3]; inhibitor 100 μM,12 (1) %
same,"residual metabolism (% of control), E2-17-β-D-glucuronide",[3]; inhibitor 100 μM,42 (7) %
same,"residual metabolism (% of control), 2ME2 MG1",[4]; inhibitor 25 μM,63 (3) %
same,"residual metabolism (% of control), 2ME2 MG2",[4]; inhibitor 25 μM,87 (3) %
same,"residual metabolism (% of control), 2ME2 MG1",[4]; inhibitor 50 μM,30 (4) %
same,"residual metabolism (% of control), 2ME2 MG2",[4]; inhibitor 50 μM,68 (3) %
same,"residual metabolism (% of control), 2ME2 MG1",[4]; inhibitor 100 μM,15 (0) %
same,"residual metabolism (% of control), 2ME2 MG2",[4]; inhibitor 100 μM,50 (2) %
same,"inhibition of raloxifene glucuronidation, in words",[5],good inhibitor
same,"inhibition of raloxifene glucuronidation, in words",[6]; UGT1A3,good inhibitor
same,"activity at 15 min, 10 µM",[6]; [21],81%
same,"activity at 15 min, 25 µM",[6]; [21],53%
same,"activity at 15 min, 50 µM",[6]; [21],28%
same,"activity at 15 min, 10 µM",[6]; [22],56%
same,"activity at 15 min, 25 µM",[6]; [22],49%
same,"activity at 15 min, 50 µM",[6]; [22],25%
same,"activity at 15 min, 10 µM",[6]; [23],72%
same,"activity at 15 min, 25 µM",[6]; [23],52%
same,"activity at 15 min, 50 µM",[6]; [23],28%
same,"activity at 15 min, 10 µM",[6]; [24],73%
same,"activity at 15 min, 25 µM",[6]; [24],49%
same,"activity at 15 min, 50 µM",[6]; [24],25%
